Here are results for 20 compounds from patent US9850216B2 (H. LEE MOFFITT CANCER CENTER AND RESEARCH INSTITUTE, INC., priority 2013, dated 2017).

Several values for one entry are separate records, joined by “and”; a condition that tells them apart may be missing. Equal values may be shown once. Read-outs that look alike come from different tables or passages of the source.

For data set [1], the target named is ACK1 (Homo sapiens, UniProt Q07912). The data set can be described thus: ACK1 ELISA: phosphorylation of AKT-derived peptide. The class given is biochemical. The conditions noted are these: Table 1, replicate values listed. Background: ELISA stands for enzyme-linked immunosorbent assay.
Chain of ACK1 (Q07912 whole entry): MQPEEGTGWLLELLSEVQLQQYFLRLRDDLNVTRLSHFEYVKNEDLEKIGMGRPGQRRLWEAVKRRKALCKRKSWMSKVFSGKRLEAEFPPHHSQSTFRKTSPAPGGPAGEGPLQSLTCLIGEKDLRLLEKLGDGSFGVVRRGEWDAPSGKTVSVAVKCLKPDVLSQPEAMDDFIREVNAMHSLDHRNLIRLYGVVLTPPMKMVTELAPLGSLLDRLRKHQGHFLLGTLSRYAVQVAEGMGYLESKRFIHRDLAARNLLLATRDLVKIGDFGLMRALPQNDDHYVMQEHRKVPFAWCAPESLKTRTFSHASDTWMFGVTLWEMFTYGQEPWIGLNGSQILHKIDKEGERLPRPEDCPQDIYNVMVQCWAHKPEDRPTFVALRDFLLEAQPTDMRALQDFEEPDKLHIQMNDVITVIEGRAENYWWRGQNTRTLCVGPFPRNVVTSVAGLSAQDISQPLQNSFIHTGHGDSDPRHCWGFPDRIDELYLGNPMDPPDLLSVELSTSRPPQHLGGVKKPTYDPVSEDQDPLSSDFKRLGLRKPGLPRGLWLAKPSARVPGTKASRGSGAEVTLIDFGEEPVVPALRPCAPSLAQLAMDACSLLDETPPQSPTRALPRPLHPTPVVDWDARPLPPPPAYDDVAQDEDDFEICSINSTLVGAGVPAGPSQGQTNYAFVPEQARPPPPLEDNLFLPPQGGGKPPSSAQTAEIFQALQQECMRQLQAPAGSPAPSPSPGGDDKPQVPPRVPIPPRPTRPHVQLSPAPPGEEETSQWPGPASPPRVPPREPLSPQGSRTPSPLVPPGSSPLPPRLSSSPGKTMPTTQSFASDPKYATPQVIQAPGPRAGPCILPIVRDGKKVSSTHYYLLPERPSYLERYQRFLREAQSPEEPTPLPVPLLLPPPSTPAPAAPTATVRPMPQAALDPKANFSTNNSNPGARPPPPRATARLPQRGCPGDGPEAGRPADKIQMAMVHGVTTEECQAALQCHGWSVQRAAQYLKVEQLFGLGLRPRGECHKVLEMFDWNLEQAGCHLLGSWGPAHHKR
The mark [2] stands for this setting: 10 μM, read-out: % Inhibition at 10 μM (ELISA).

For orientation: melting point means the temperature, or range, at which the solid turns liquid. For orientation: % Inhibition means the change of the read-out against control, counted positive when it falls. As usually defined, the inhibition is the drop in the measured response relative to a control, in per cent. For `CN1CCN(c2ccc(Nc3ncc(F)c(NCC4CCCO4)n3)cc2)CC1` (stereo not shown) [DZ1-098, 5-fluoro-N2-(4-(4-methylpiperazin-1-yl)phenyl)-N4-((tetrahydrofuran-2-yl)methyl)pyrimidine-2,4-diamine], the melting point was 86 °C (dec.). Moreover, in data set [1] (10 μM), the “% Inhibition at 10 μM (ELISA)” value stood at 48%. In addition, the inhibition at 10 µM in data set [1] (setting [2]) came to 61%.

As to `Cc1cnc(Nc2ccc(N3CCN(C)CC3)cc2)nc1NCC1CCCO1` (stereo not shown) [DZ1-100, 5-methyl-N2-(4-(4-methylpiperazin-1-yl)phenyl)-N4-((tetrahydrofuran-2-yl)methyl)pyrimidine-2,4-diamine], the melting point is 151.7 °C (dec.). The “% Inhibition at 10 μM (ELISA)” value in data set [1] (10 μM) was 85% and 54% and 5% and 10%.

With `CN1CCN(c2ccc(Nc3nc(NCC4CCCO4)c4ccccc4n3)cc2)CC1` (stereo not shown) [DZ1-106, N2-(4-(4-methylpiperazin-1-yl)phenyl)-N4-((tetrahydrofuran-2-yl)methyl)quinazoline-2,4-diamine], the melting point was 60.1 °C (dec.). For the same compound, the “% Inhibition at 10 μM (ELISA)” value in data set [1] (10 μM) stood at 14%. Besides, in data set [1] (setting [2]), the inhibition at 10 µM stood at 19%.

For `CCc1cnc(Nc2ccc(N3CCN(C)CC3)cc2)nc1NCC1CCCO1` (stereo not shown) [DZ1-108, 5-ethyl-N2-(4-(4-methylpiperazin-1-yl)phenyl)-N4-((tetrahydrofuran-2-yl)methyl)pyrimidine-2,4-diamine], the melting point was 209.5 °C (dec.). The “% Inhibition at 10 μM (ELISA)” value in data set [1] (10 μM) was 72% and 48% and 34% and 46%.

Consider `Cc1cnc(Nc2ccc(O)cc2)nc1NCC1CCCO1` (stereo not shown) [DZ1-116, 4-(5-methyl-4-((tetrahydrofuran-2-yl)methylamino)pyrimidin-2-ylamino)phenol], for which the melting point is 145.4 °C (dec.). Moreover, the “% Inhibition at 10 μM (ELISA)” value in data set [1] (10 μM) was 15% and 5%.

Turning to `Cl.O=C(O)Cc1ccc(Nc2ncc(Br)c(NCC3CCCO3)n2)cc1` (stereo not shown) [NT1-022, 2-(4-(5-Bromo-4-((tetrahydrofuran-2-yl)methylamino)pyrimidin-2-ylamino)phenyl)acetic acid], the melting point was 120 °C (dec.). The “% Inhibition at 10 μM (ELISA)” value in data set [1] (10 μM) is listed as 63%. Also, in data set [1] (setting [2]), the inhibition at 10 µM turned out to be 59%.

In the case of `O=C(O)CCCc1ccc(Nc2ncc(Cl)c(NCC3CCCO3)n2)cc1` (stereo not shown) [NT1-025, 4-(4-(5-Chloro-4-((tetrahydrofuran-2-yl)methylamino)pyrimidin-2-ylamino)phenyl)butanoic acid], the melting point was 180 °C (dec.). Also, in data set [1] (10 μM), the “% Inhibition at 10 μM (ELISA)” value turned out to be 65%. Besides, the inhibition at 10 µM in data set [1] (read-out: % Inhibition at 10 μM (ELISA), 10 μM) was found to be 61%.

As to `Cl.O=C(O)CCCc1ccc(Nc2ncc(Cl)c(NC[C@H]3CCCO3)n2)cc1` [NT1-026, (R)-4-(4-(5-Chloro-4-((tetrahydrofuran-2-yl)methylamino)pyrimidin-2-ylamino)phenyl)butanoic acid], the melting point was 180 °C (dec.). For the same compound, in data set [1] (10 μM), the “% Inhibition at 10 μM (ELISA)” value is given as 65%. Also, in data set [1] (setting [2]), the inhibition at 10 µM turned out to be 55%.

On to `Cl.O=C(O)CCCc1ccc(Nc2ncc(Cl)c(NC[C@@H]3CCCO3)n2)cc1` [NT1-027, (S)-4-(4-(5-Chloro-4-((tetrahydrofuran-2-yl)methylamino)pyrimidin-2-ylamino)phenyl)butanoic acid], for which the melting point was 180 °C (dec.). The “% Inhibition at 10 μM (ELISA)” value in data set [1] (10 μM) came to 64%. For the same compound, the inhibition at 10 µM in data set [1] (setting [2]) came out at 52%.

In the case of `CSc1ccccc1Nc1nc(Cl)ncc1C(=O)Nc1c(F)cccc1Cl` [YL7-031B2, 2-Chloro-N-(2-chloro-6-fluorophenyl)-4-(2-(methylthio)phenylamino)pyrimidine-5-carboxamide], the melting point lay in the range of 204 to 206 °C. Moreover, the inhibition at 10 µM in data set [1] (setting [2]) worked out at 0%.

The compound `CS(=O)(=O)c1ccccc1Nc1nc(Cl)ncc1C(=O)Nc1c(F)cccc1Cl` [YL7-034, 2-Chloro-N-(2-chloro-6-fluorophenyl)-4-(2-(methylsulfonyl)phenylamino)pyrimidine-5-carboxamide] displayed a melting point of 211 to 214 °C. Moreover, the “% Inhibition at 10 μM (ELISA)” value in data set [1] (10 μM) was 16% and −3% and −6%.

For the compound `COc1ccc(Nc2ncc(C(=O)Nc3c(F)cccc3Cl)c(Nc3ccccc3S(C)(=O)=O)n2)cc1` [YL7-037, N-(2-chloro-6-fluorophenyl)-2-(4-methoxyphenylamino)-4-(2-(methylsulfonyl)phenylamino)pyrimidine-5-carboxamide], the melting point was 267 °C (dec.). For the same compound, the “% Inhibition at 10 μM (ELISA)” value in data set [1] (10 μM) is 4% and 0%.

For `CS(=O)(=O)c1ccccc1Nc1nc(Nc2ccc(O)cc2)ncc1C(=O)Nc1c(F)cccc1Cl` [YL7-038, N-(2-chloro-6-fluorophenyl)-2-(4-hydroxyphenylamino)-4-(2-(methylsulfonyl)phenylamino)pyrimidine-5-carboxamide], the melting point is 238 °C (dec.). In addition, the “% Inhibition at 10 μM (ELISA)” value in data set [1] (10 μM) is 39% and 18%.

`COc1ccc(Nc2ncc(C(=O)Nc3c(F)cccc3Cl)c(Nc3ccccc3SC)n2)cc1` [YL7-039-1, N-(2-chloro-6-fluorophenyl)-2-(4-methoxyphenylamino)-4-(2-(methylthio)phenylamino)pyrimidine-5-carboxamide]: the melting point was 261 °C (dec.). The “% Inhibition at 10 μM (ELISA)” value in data set [1] (10 μM) was 7% and 0%.

For `CSc1ccccc1Nc1nc(Nc2ccc(O)cc2)ncc1C(=O)Nc1c(F)cccc1Cl` [YL7-039-2, N-(2-chloro-6-fluorophenyl)-2-(4-hydroxyphenylamino)-4-(2-(methylthio)phenylamino)pyrimidine-5-carboxamide], the melting point is 246 °C (dec.). In addition, in data set [1] (10 μM), the “% Inhibition at 10 μM (ELISA)” value was 40% and 5%.

Consider `CC(C)Sc1ccccc1Nc1nc(Cl)ncc1C(=O)Nc1c(F)cccc1Cl` [YL7-040, 2-Chloro-N-(2-chloro-6-fluorophenyl)-4-(2-(isopropylthio)phenylamino)pyrimidine-5-carboxamide], for which the melting point fell in the range of 202 to 205 °C. The inhibition at 10 µM in data set [1] (setting [2]) turned out to be 0%.

`CC(C)S(=O)(=O)c1ccccc1Nc1nc(Cl)ncc1C(=O)Nc1c(F)cccc1Cl` [YL7-041, 2-Chloro-N-(2-chloro-6-fluorophenyl)-4-(2-(isopropylsulfonyl)phenylamino)pyrimidine-5-carboxamide] registered a melting point of 225 to 227 °C. The “% Inhibition at 10 μM (ELISA)” value in data set [1] (10 μM) was 7% and −21% and −27%.

For the compound `COc1ccc(Nc2ncc(C(=O)Nc3c(F)cccc3Cl)c(Nc3ccccc3S(=O)(=O)C(C)C)n2)cc1` [YL7-045-1, N-(2-chloro-6-fluorophenyl)-4-(2-(isopropylsulfonyl)phenylamino)-2-(4-methoxyphenylamino)pyrimidine-5-carboxamide], the melting point was 246 °C (dec.). Besides, the “% Inhibition at 10 μM (ELISA)” value in data set [1] (10 μM) was 37% and 18%.

With `O=C(O)C1CCN(c2ccc(Nc3ncc(Cl)c(NCC4CCCO4)n3)cc2)CC1` (stereo not shown) [YL8-050, 1-(4-(5-Chloro-4-((tetrahydrofuran-2-yl)methylamino)pyrimidin-2-ylamino)phenyl)piperidine-4-carboxylic acid], the “% Inhibition at 10 μM (ELISA)” value in data set [1] (10 μM) is 96%. Moreover, the inhibition at 10 µM in data set [1] (setting [2]) worked out at 87%.

Take `O=C(O)CCC(=O)N1CCN(c2ccc(Nc3ncc(Br)c(NCC4CCCO4)n3)cc2)CC1` (stereo not shown) [YL9-168, 4-(4-(4-(5-Bromo-4-((tetrahydrofuran-2-yl)methylamino)pyrimidin-2-ylamino)phenyl)piperazin-1-yl)-4-oxobutanoic acid]: the “% Inhibition at 10 μM (ELISA)” value in data set [1] (10 μM) amounted to 90%. The inhibition at 10 µM in data set [1] (setting [2]) worked out at 94%.
